# Measurements as given in patent publication US20020137929A1, “1 - (3-heterocyclylphenyl) isothiourea, -isourea, -guanidine and -amidine herbicidal agents” (Intellectual Property Department, BASF Aktiengesellschaft, priority 1998, published 2002).
# How the values were obtained:
# CASOB (Sicklepod) = assay: Preemergence herbicidal evaluation; assay type: in vivo, Cassia obtusifolia; settings: rated 4-5 weeks after treatment
# Procedure, shortened: (§1)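 Test compound, dissolved in aqueous acetone, was sprayed over planted soil cups at an equivalent of about 0.0156 to 0.500 kg/ha; seeds had been mixed with potting soil. Greenhouse growth followed, with visual 0-9 scoring of injury at four to five weeks.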
# ZEAMX (Corn, Field) [1] = assay: Preemergence herbicidal evaluation; assay type: in vivo, Zea mays; settings: rated 4-5 weeks after treatment
# Procedure, shortened: as §1
# ZEAMX (Corn, Field) [2] = assay: Postemergence herbicidal evaluation; assay type: in vivo, Zea mays; settings: postemergence
# Procedure, shortened: (§2)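 Visual 0-9 injury score (stand, vigor, malformation, size, chlorosis, appearance vs untreated) taken four to five weeks post-spray, averaged across repeat tests. Test plants about two weeks old; foliar spray of acetone/water (1:1) with 0.5% surfactant delivering ~0.0156-0.500 kg active/ha.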
# [3] = tested on: CHEAL (Lambsquarters, Common); assay: Preemergence herbicidal evaluation; assay type: in vivo, Chenopodium album; settings: rated 4-5 weeks after treatment
# Procedure, shortened: as §1
# ECHCG (Barnyardgrass) [4] = assay: Preemergence herbicidal evaluation; assay type: in vivo, Echinochloa crus-galli; settings: rated 4-5 weeks after treatment
# Procedure, shortened: as §1
# ECHCG (Barnyardgrass) [5] = assay: Postemergence herbicidal evaluation; assay type: in vivo, Echinochloa crus-galli; settings: postemergence
# Procedure, shortened: as §2
# CYPIR (Rice Flatsedge) = assay: Postemergence weed control under flooded paddy conditions; assay type: in vivo, Cyperus iria; settings: postemergence weeds, 3-4 weeks after treatment
# Procedure, shortened: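 Flood-water application, about 0.0313–0.500 kg/ha a.i. in aqueous/acetone 50/50 v/v; water depth 1.5–3 cm throughout. Weeds 3–5 cm, rice 1.5–2.5 leaf. Greenhouse; 0–9 visual rating vs control at 3–4 wk.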
# [6] = tested on: TRZAWR (Wheat, Winter, cv Riband); assay: Preemergence herbicidal evaluation; assay type: in vivo, Triticum aestivum; settings: rated 4-5 weeks after treatment
# Procedure, shortened: as §1
# ABUTH (Velvetleaf) [7] = assay: Postemergence herbicidal evaluation; assay type: in vivo, Abutilon theophrasti; settings: postemergence
# Procedure, shortened: as §2
# ABUTH (Velvetleaf) [8] = assay: Preemergence herbicidal evaluation; assay type: in vivo, Abutilon theophrasti; settings: rated 4-5 weeks after treatment
# Procedure, shortened: as §1
# [9] = tested on: CHEAL (Lambsquarters, Common); assay: Postemergence herbicidal evaluation; assay type: in vivo, Chenopodium album; settings: postemergence
# Procedure, shortened: as §2
# CYPSE (Flatsedge) = assay: Postemergence weed control under flooded paddy conditions; assay type: in vivo, Cyperus serotinus; settings: postemergence weeds, 3-4 weeks after treatment
# Excerpt: Results of herbicide evaluation are expressed on a rating scale (0-9). The scale is based upon a visual observation of plant stand, vigor, malformation, size, chlorosis and overall plant appearance as compared with a control.
# Plastic containers containing weeds which are 3 to 5 cm tall and rice seedlings at the 1.5 to 2.5 leaf stage are flooded with water. The water is maintained at 1.5 to 3 cm above the soil surface for the duration of the experiment. Test compounds are applied as aqueous/ acetone mixtures 50/50 v/v directly into the flood water to provide the equivalent of about 0.0313 to 0.500 kg/ha of active ingredient. The treated containers are placed on greenhouse benches and cared for in accordance with conventional greenhouse procedures. Three to four weeks after treatment, the test is terminated and each container is examined and herbicidal effect rated according to the rating system provided in Example 37. The compounds evaluated are reported by compound number given in Example 37.
# SETVI (Foxtail, Green) = assay: Postemergence herbicidal evaluation; assay type: in vivo, Setaria viridis; settings: postemergence
# Procedure, shortened: as §2
# ORYSAT (Rice, Tebonnet) = assay: Postemergence herbicidal evaluation; assay type: in vivo, Oryza sativa, (L.) Tebonnet; settings: postemergence
# Procedure, shortened: as §2
structure (smiles),measurement,setting,value
"CCC1SC(=Nc2cc(N3C(=O)C4=C(CCCC4)C3=O)c(F)cc2Cl)N(C)C1=O (stereo not drawn) [Compound 6, N-{4-chloro-5-[(5-ethyl-3-methyl-4-oxo-2-thiazolidinylidene)amino]-2-fluorophenyl}-1-cyclohexene-1,2-dicarboximide]",CASOB preemergence herbicidal rating,CASOB (Sicklepod); rate 0.1250 kg/ha,0.0
same,CASOB preemergence herbicidal rating,CASOB (Sicklepod); rate 0.2500 kg/ha,0.0
same,CASOB preemergence herbicidal rating,CASOB (Sicklepod); rate 0.5000 kg/ha,0.0
same,ZEAMX preemergence herbicidal rating,"ZEAMX (Corn, Field) [1]; rate 0.1250 kg/ha",0.0
same,ZEAMX preemergence herbicidal rating,"ZEAMX (Corn, Field) [1]; rate 0.2500 kg/ha",0.0
same,ZEAMX preemergence herbicidal rating,"ZEAMX (Corn, Field) [1]; rate 0.5000 kg/ha",0.0
same,ZEAMX herbicidal rating,"ZEAMX (Corn, Field) [2]; rate 0.0157 kg/ha",3.0
same,ZEAMX herbicidal rating,"ZEAMX (Corn, Field) [2]; rate 0.0313 kg/ha",3.5
same,ZEAMX herbicidal rating,"ZEAMX (Corn, Field) [2]; rate 0.0625 kg/ha",3.5
same,ZEAMX herbicidal rating,"ZEAMX (Corn, Field) [2]; rate 0.1250 kg/ha",3.5
same,ZEAMX herbicidal rating,"ZEAMX (Corn, Field) [2]; rate 0.2500 kg/ha",3.5
same,ZEAMX herbicidal rating,"ZEAMX (Corn, Field) [2]; rate 0.5000 kg/ha",4.0
same,CHEAL preemergence herbicidal rating,[3]; rate 0.1250 kg/ha,2.0
same,CHEAL preemergence herbicidal rating,[3]; rate 0.2500 kg/ha,4.0
same,CHEAL preemergence herbicidal rating,[3]; rate 0.5000 kg/ha,9.0
same,ECHCG preemergence herbicidal rating,ECHCG (Barnyardgrass) [4]; rate 0.1250 kg/ha,0.0
same,ECHCG preemergence herbicidal rating,ECHCG (Barnyardgrass) [4]; rate 0.2500 kg/ha,0.0
same,ECHCG preemergence herbicidal rating,ECHCG (Barnyardgrass) [4]; rate 0.5000 kg/ha,2.0
same,ECHCG herbicidal rating,ECHCG (Barnyardgrass) [5]; rate 0.0157 kg/ha,0.0
same,ECHCG herbicidal rating,ECHCG (Barnyardgrass) [5]; rate 0.0313 kg/ha,0.0
same,ECHCG herbicidal rating,ECHCG (Barnyardgrass) [5]; rate 0.0625 kg/ha,0.0
same,ECHCG herbicidal rating,ECHCG (Barnyardgrass) [5]; rate 0.1250 kg/ha,0.0
same,ECHCG herbicidal rating,ECHCG (Barnyardgrass) [5]; rate 0.2500 kg/ha,1.0
same,ECHCG herbicidal rating,ECHCG (Barnyardgrass) [5]; rate 0.5000 kg/ha,2.0
same,Herbicidal rating CYPIR,CYPIR (Rice Flatsedge); rate 0.0313 kg/ha,0.0
same,Herbicidal rating CYPIR,CYPIR (Rice Flatsedge); rate 0.0625 kg/ha,1.0
same,Herbicidal rating CYPIR,CYPIR (Rice Flatsedge); rate 0.1250 kg/ha,2.0
same,Herbicidal rating CYPIR,CYPIR (Rice Flatsedge); rate 0.2500 kg/ha,3.0
same,Herbicidal rating CYPIR,CYPIR (Rice Flatsedge); rate 0.5000 kg/ha,3.5
same,TRZAWR preemergence herbicidal rating,[6]; rate 0.1250 kg/ha,0.0
same,TRZAWR preemergence herbicidal rating,[6]; rate 0.2500 kg/ha,0.0
same,TRZAWR preemergence herbicidal rating,[6]; rate 0.5000 kg/ha,0.0
same,ABUTH herbicidal rating,ABUTH (Velvetleaf) [7]; rate 0.0157 kg/ha,7.0
same,ABUTH herbicidal rating,ABUTH (Velvetleaf) [7]; rate 0.0313 kg/ha,8.0
same,ABUTH herbicidal rating,ABUTH (Velvetleaf) [7]; rate 0.0625 kg/ha,8.0
same,ABUTH herbicidal rating,ABUTH (Velvetleaf) [7]; rate 0.1250 kg/ha,9.0
same,ABUTH herbicidal rating,ABUTH (Velvetleaf) [7]; rate 0.2500 kg/ha,9.0
same,ABUTH herbicidal rating,ABUTH (Velvetleaf) [7]; rate 0.5000 kg/ha,9.0
same,ABUTH preemergence herbicidal rating,ABUTH (Velvetleaf) [8]; rate 0.1250 kg/ha,0.0
same,ABUTH preemergence herbicidal rating,ABUTH (Velvetleaf) [8]; rate 0.2500 kg/ha,0.0
same,ABUTH preemergence herbicidal rating,ABUTH (Velvetleaf) [8]; rate 0.5000 kg/ha,0.0
same,CHEAL herbicidal rating,[9]; rate 0.0157 kg/ha,0.0
same,CHEAL herbicidal rating,[9]; rate 0.0313 kg/ha,0.0
same,CHEAL herbicidal rating,[9]; rate 0.0625 kg/ha,2.0
same,CHEAL herbicidal rating,[9]; rate 0.2500 kg/ha,6.0
same,CHEAL herbicidal rating,[9]; rate 0.5000 kg/ha,9.0
same,Herbicidal rating CYPSE,CYPSE (Flatsedge); rate 0.0313 kg/ha,0.0
same,Herbicidal rating CYPSE,CYPSE (Flatsedge); rate 0.0625 kg/ha,0.0
same,Herbicidal rating CYPSE,CYPSE (Flatsedge); rate 0.1250 kg/ha,0.0
same,Herbicidal rating CYPSE,CYPSE (Flatsedge); rate 0.2500 kg/ha,0.0
same,Herbicidal rating CYPSE,CYPSE (Flatsedge); rate 0.5000 kg/ha,0.0
same,SETVI herbicidal rating,"SETVI (Foxtail, Green); rate 0.0157 kg/ha",0.0
same,SETVI herbicidal rating,"SETVI (Foxtail, Green); rate 0.0313 kg/ha",0.0
same,SETVI herbicidal rating,"SETVI (Foxtail, Green); rate 0.0625 kg/ha",0.0
same,SETVI herbicidal rating,"SETVI (Foxtail, Green); rate 0.1250 kg/ha",2.0
same,SETVI herbicidal rating,"SETVI (Foxtail, Green); rate 0.2500 kg/ha",2.0
same,SETVI herbicidal rating,"SETVI (Foxtail, Green); rate 0.5000 kg/ha",2.0
same,ORYSAT herbicidal rating,"ORYSAT (Rice, Tebonnet); rate 0.0157 kg/ha",2.5
same,ORYSAT herbicidal rating,"ORYSAT (Rice, Tebonnet); rate 0.0313 kg/ha",2.5
same,ORYSAT herbicidal rating,"ORYSAT (Rice, Tebonnet); rate 0.0625 kg/ha",2.5
same,ORYSAT herbicidal rating,"ORYSAT (Rice, Tebonnet); rate 0.1250 kg/ha",2.5
same,ORYSAT herbicidal rating,"ORYSAT (Rice, Tebonnet); rate 0.2500 kg/ha",2.5
same,ORYSAT herbicidal rating,"ORYSAT (Rice, Tebonnet); rate 0.5000 kg/ha",2.5
